Assay results taken from patent US20160319277A1, “METHODS OF IMPROVED PROTEIN PRODUCTION USING MIRNAs AND SIRNAs” (THE JOHNS HOPKINS UNIVERSITY, priority 2015, published 2016).

System: HEK-CMV-Luc2-Hygro cells
Test: High-throughput genome-wide siRNA screen and validation screen for luciferase expression
Format: cell-based, human
Conditions: Table 3; per cell luciferase yield relative to negative control, primary screen, 72 h
Description: The Silencer Select™ Human genome siRNA library (Ambion), which targets 21,585 human genes with 3 siRNAs per gene, was used for screening. Each siRNA is arrayed in an individual well (Corning 3570, 384 well, white, solid bottom plates). The transfection was done in duplicates: 0.8 pmol of each siRNA was spotted to a well of a 384-well plate (Corning) and 20 μL of serum-free DMEM containing 0.07 μL of Lipofectamine™ RNAiMax (Life Technologies) was then added to each well. This lipid-siRNA mixture was incubated at ambient temperature for 30 min prior to addition of 4000 cells in 20 μL of DMEM containing 20% FBS (Gibco). After incubating the transfected cells at 37° C. in 5% CO2 for 72 hours, 20 μL of ONE-Glo™ Reagent (Promega) was added to one set of replicates for ‘overall luciferase yield’ quantification and 20 μL of CellTiter-Glo™ Reagent (Promega) was added to the second set of replicates for ‘viable cell density’ measurement. All plates were incubated at room temperature for 20 minutes to stabilize the luminescent signal and the signal was then measured with PerkinElmer Envision 2104 Multilabel™ plate reader.
The 56 genes which got targeted by at least two independent siRNAs (out of three) resulting in enhanced luciferase production with MAD-based z-score>3 from the primary screen were subjected to validation screen using 3 additional Silencer™ siRNAs (Ambion) with different sequences from those used in the primary screen. […] The transfection and assay processes were-the same as the primary genome-wide screen. Data visualization was performed in R computational environment (available on the World Wide Web at R-project.org/) by using ‘hexbin’ and ‘ggplot2’ packages.
The screen generated end-point data for ‘overall luciferase yield’ and ‘viable cell density’ in each well. For each plate, the median value of the negative control wells was set as 100% and was used to normalize corresponding sample wells. The ‘overall luciferase yield’ and ‘viable cell density’ were exported as % of negative control and the median absolute deviation (MAD)-based z-score was calculated for each sample.

Substance	per_cell
48 (GCAAUGCUUGCAAAACUCATT; chemistry not given here; listed as Homo sapiens) [compound 48]	189.3
82 (GUCCUAUCACCGUAUCUUATT; chemistry not given here; listed as Homo sapiens) [compound 82]	266.6
80 (CAAUGAUUCUUACCCUCAATT; chemistry not given here; listed as Homo sapiens) [compound 80]	257.9
64 (GAUCGUUUGAGAGAACAAATT; chemistry not given here; listed as Homo sapiens) [compound 64]	210.3
90 (GGUGCUCUCGGUUGCACAATT; chemistry not given here; listed as Homo sapiens) [compound 90]	187.4
63 (CCUGGACAGUUUGAAGCAATT; chemistry not given here; listed as Homo sapiens) [compound 63]	174.9

Same assay, conditions: Table 3; viable cell density as % of negative control, primary screen, 72 h

Substance	VIA
48 (GCAAUGCUUGCAAAACUCATT; chemistry not given here; listed as Homo sapiens) [compound 48]	90.98
82 (GUCCUAUCACCGUAUCUUATT; chemistry not given here; listed as Homo sapiens) [compound 82]	55.96
80 (CAAUGAUUCUUACCCUCAATT; chemistry not given here; listed as Homo sapiens) [compound 80]	77.17
64 (GAUCGUUUGAGAGAACAAATT; chemistry not given here; listed as Homo sapiens) [compound 64]	77.11
90 (GGUGCUCUCGGUUGCACAATT; chemistry not given here; listed as Homo sapiens) [compound 90]	82.33
63 (CCUGGACAGUUUGAAGCAATT; chemistry not given here; listed as Homo sapiens) [compound 63]	88.01

Same assay, conditions: Table 4; primary screen, 72 h, negative control = 100%

Substance	Viable cell density (%)	per cell luciferase yield (%)
135 (CAGGUAGUGUAAGCCCUCATT; chemistry not given here; listed as Homo sapiens) [compound 135]	66.872	302.994
186 (CGAAACUUGUCAACGGGAATT; chemistry not given here; listed as Homo sapiens) [compound 186]	104.553	179.207
178 (AAAUGCAACCCAAAAAGUATT; chemistry not given here; listed as Homo sapiens) [compound 178]	76.280	200.322
100 (GAACGAGUACAGCAAUAUATT; chemistry not given here; listed as Homo sapiens) [compound 100]	108.214	140.868
190 (CUGUGGAAAAGAUACCGUATT; chemistry not given here; listed as Homo sapiens) [compound 190]	95.368	152.850
194 (CAUCAAGCCCUGUAAGUCUTT; chemistry not given here; listed as Homo sapiens) [compound 194]	89.583	163.431
146 (GACCUAUACUCAUUCUGCATT; chemistry not given here; listed as Homo sapiens) [compound 146]	83.351	171.308
102 (AGAUCUUUGUCAAGGUGUATT; chemistry not given here; listed as Homo sapiens) [compound 102]	96.256	153.438
203 (GAUUACUUCUUGACUAUCATT; chemistry not given here; listed as Homo sapiens) [compound 203]	123.199	150.843
142 (AAGUCAACAUAGCCCGAAATT; chemistry not given here; listed as Homo sapiens) [compound 142]	111.487	145.707
138 (CCCUCCUACUAUUACCCGUTT; chemistry not given here; listed as Homo sapiens) [compound 138]	96.869	162.999
160 (GGACCAAGCCCUAAAGGAATT; chemistry not given here; listed as Homo sapiens) [compound 160]	68.989	220.902
188 (GGAAGAACGUCUUGCACAATT; chemistry not given here; listed as Homo sapiens) [compound 188]	85.471	183.071
208 (CUUUUAAUGUUAAACUACATT; chemistry not given here; listed as Homo sapiens) [compound 208]	110.986	133.601
98 (CAACGGGACUAUUAUGAUATT; chemistry not given here; listed as Homo sapiens) [compound 98]	97.392	163.496
212 (GAGCAGAGAUCAUAACCAATT; chemistry not given here; listed as Homo sapiens) [compound 212]	108.211	141.104
211 (GGAUUACAGAAACUCCUAUTT; chemistry not given here; listed as Homo sapiens) [compound 211]	82.634	188.258
173 (GACUAUUGAUACCAAAACATT; chemistry not given here; listed as Homo sapiens) [compound 173]	82.689	209.398
145 (CCAGUUCGACCUGAACAAATT; chemistry not given here; listed as Homo sapiens) [compound 145]	85.750	176.019
141 (AGAGGACCCAGAUUGUCUATT; chemistry not given here; listed as Homo sapiens) [compound 141]	97.298	183.386
174 (GCAAUGCUUGCAAAACUCATT; chemistry not given here; listed as Homo sapiens) [compound 174]	90.976	189.252
166 (CCAAGUCCAAUGCACCUGUTT; chemistry not given here; listed as Homo sapiens) [compound 166]	76.798	186.195
198 (GCCUAGGAGUUAUCCUCUATT; chemistry not given here; listed as Homo sapiens) [compound 198]	112.248	137.554
152 (CGAUGUUCGUGGACAUUCUTT; chemistry not given here; listed as Homo sapiens) [compound 152]	80.013	234.608

Same assay, conditions: Table 6; polyamine pathway gene siRNAs

Substance	Luciferase activity (%)	Per cell luciferase yield (%)	Viable cell number (%)
217 (ACAUCGUCCACUUCCAGUATT; chemistry not given here; listed as Homo sapiens) [compound 217]	97.4	101.1	96.3
227 (CGAUGAACAUGUUAGACAUTT; chemistry not given here; listed as Homo sapiens) [compound 227]	30.4	42.2	72.1
216 (GGGAAUAGUCAGAGGGAUCTT; chemistry not given here; listed as Homo sapiens) [compound 216]	92.8	90.4	102.7
213 (GGCUGAAUGUAACAGAGGATT; chemistry not given here; listed as Homo sapiens) [compound 213]	127.6	134.5	94.9
